# According to patent US9000186B2, “Ring-fused heterocyclic derivative” (Kyowa Hakko Kirin Co., Ltd., priority 2011, dated 2015):
# Molecular target: T1, human Cav3.2 T-type Ca2+ channel (Homo sapiens, UniProt O95180)
# T1 construct: expressed in transfected cells; host or cells: KJMGER8 cells (Namalwa cell-derived cell line)
# Experiment: Inhibitory effect for intracellular calcium response via Cav3.2 T-type Ca2+ channels (FLIPR Calcium 3 Assay Kit)
# Type: cell-based
# Settings: not given
# T1 sequence (O95180 whole entry): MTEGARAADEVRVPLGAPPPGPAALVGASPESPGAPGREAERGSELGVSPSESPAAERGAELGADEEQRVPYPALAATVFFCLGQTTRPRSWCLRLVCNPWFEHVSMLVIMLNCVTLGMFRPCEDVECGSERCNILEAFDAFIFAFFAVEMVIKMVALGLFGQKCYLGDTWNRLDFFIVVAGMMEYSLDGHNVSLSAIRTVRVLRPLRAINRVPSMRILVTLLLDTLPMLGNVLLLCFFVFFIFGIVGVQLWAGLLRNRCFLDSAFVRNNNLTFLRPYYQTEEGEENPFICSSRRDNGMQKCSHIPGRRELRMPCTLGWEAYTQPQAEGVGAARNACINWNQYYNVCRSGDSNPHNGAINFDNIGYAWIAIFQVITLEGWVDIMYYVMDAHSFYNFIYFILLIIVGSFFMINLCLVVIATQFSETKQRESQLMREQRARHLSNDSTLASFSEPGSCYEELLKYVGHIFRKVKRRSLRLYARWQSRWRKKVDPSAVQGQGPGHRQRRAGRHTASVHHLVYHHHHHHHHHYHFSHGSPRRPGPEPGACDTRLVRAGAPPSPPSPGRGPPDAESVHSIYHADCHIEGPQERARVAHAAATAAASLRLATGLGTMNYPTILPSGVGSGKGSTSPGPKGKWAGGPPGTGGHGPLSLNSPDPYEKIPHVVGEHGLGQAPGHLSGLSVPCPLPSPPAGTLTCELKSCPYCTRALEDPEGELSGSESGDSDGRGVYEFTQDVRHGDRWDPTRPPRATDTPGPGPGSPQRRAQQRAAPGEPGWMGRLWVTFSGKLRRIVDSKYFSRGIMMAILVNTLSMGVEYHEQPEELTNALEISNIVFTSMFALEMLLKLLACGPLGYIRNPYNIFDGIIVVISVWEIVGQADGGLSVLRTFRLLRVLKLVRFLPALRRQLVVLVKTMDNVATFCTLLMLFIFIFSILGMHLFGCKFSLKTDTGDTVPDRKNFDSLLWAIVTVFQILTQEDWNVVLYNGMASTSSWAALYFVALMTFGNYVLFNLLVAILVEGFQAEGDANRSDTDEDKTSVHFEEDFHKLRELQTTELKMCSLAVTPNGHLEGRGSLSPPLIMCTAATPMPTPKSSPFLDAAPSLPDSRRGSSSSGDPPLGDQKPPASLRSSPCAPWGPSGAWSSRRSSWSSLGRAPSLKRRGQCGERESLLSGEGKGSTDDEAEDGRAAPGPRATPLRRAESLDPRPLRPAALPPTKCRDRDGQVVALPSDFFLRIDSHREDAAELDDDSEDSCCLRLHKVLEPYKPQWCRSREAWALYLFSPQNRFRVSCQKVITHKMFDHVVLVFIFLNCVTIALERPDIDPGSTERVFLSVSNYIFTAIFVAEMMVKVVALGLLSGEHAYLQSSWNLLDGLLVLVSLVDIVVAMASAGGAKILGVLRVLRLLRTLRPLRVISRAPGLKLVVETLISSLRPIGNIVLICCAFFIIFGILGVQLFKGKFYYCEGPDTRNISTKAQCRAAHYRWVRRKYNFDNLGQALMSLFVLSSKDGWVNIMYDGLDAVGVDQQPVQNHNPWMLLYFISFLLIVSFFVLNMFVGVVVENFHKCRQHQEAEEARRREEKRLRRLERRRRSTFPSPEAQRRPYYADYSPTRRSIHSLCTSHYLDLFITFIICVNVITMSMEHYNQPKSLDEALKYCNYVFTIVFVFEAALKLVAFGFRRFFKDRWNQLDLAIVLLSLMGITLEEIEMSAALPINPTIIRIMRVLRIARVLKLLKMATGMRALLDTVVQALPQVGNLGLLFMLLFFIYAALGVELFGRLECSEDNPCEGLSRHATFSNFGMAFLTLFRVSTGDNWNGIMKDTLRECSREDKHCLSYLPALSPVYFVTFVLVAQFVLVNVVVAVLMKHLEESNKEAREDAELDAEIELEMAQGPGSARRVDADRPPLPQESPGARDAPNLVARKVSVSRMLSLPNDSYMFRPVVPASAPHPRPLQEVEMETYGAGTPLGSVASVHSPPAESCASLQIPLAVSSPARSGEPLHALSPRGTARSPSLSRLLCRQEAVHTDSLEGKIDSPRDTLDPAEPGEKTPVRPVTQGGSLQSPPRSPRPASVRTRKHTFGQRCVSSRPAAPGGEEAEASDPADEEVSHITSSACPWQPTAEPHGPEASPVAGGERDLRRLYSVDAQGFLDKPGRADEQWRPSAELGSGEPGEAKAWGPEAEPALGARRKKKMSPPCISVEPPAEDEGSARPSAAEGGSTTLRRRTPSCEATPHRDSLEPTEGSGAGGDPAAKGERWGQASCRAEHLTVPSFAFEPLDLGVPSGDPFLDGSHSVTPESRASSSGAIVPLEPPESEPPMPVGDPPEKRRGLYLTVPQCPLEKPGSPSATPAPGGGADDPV
row,SMILES,IC50 [nM]
1,"Cc1c(Cl)c(C(=O)NC2CCOCC2)cc2nc(C(F)(F)F)c(CC3CCC(F)(F)CC3)n12 [Compound 124, 6-Chloro-3-(4,4-difluorocyclohexylmethyl)-5-methyl-N-(tetrahydro-2H-pyran-4-yl)-2-trifluoromethylimidazo[1,2-a]pyridine-7-carboxamide]",< 100
2,"Cc1c(I)c(C(=O)Nc2ccccc2)cc2nc(C(F)(F)F)c(CC3CCC(F)(F)CC3)n12 [Compound 125, 3-(4,4-Difluorocyclohexylmethyl)-6-iodo-5-methyl-N-phenyl-2-trifluoromethylimidazo[1,2-a]pyridine-7-carboxamide]",< 100
3,"CC(C)c1nc2cc(C(=O)Nc3ccccc3)ccn2c1S(=O)(=O)N(C(C)C)C1CC1 [Compound 130, 3-(N-Cyclopropyl-N-isopropylsulfamoyl)-2-isopropyl-N-phenylimidazo[1,2-a]pyridine-7-carboxamide]",< 100
4,"CC(C)c1nc2cc(C(=O)Nc3ccccc3)ccn2c1S(=O)(=O)N(C1CC1)C1CC1 [Compound 131, 3-(N,N-Dicyclopropylsulfamoyl)-2-isopropyl-N-phenylimidazo[1,2-a]pyridine-7-carboxamide]",< 100
5,"CC(C)c1nc2cc(C(=O)N3CCc4ccccc43)ccn2c1S(=O)(=O)N1CCCCC1 [Compound 136, Indolin-1-yl{2-isopropyl-3-(piperidin-1-ylsulfonyl)imidazo[1,2-a]pyridin-7-yl}methanone]",< 100
6,"O=C(Nc1ccccc1)c1ccn2c(S(=O)(=O)N3CC(F)(F)C3)c(C3CC3)nc2c1 [Compound 138, 2-Cyclopropyl-3-(3,3-difluoroazetidin-1-ylsulfonyl)-N-phenylimidazo[1,2-a]pyridine-7-carboxamide]",< 100
7,"CN(C(C)(C)C)S(=O)(=O)c1c(C(F)(F)F)nc2cc(C(=O)Nc3ccccc3)ccn12 [Compound 147, 3-(N-tert-Butyl-N-methylsulfamoyl)-N-phenyl-2-trifluoromethylimidazo[1,2-a]pyridine-7-carboxamide]",< 100
8,"CC(C)c1nc2cc(C(=O)NC3CC(F)(F)C3)c(Cl)cn2c1S(=O)(=O)N1CC(F)(F)C1 [Compound 151, 6-Chloro-3-(3,3-difluoroazetidin-1-ylsulfonyl)-N-(3,3-difluorocyclobutyl)-2-isopropylimidazo[1,2-a]pyridine-7-carboxamide]",< 100
9,"CC(C)c1nc2cc(C(=O)NC3CCOC(C)(C)C3)c(Cl)cn2c1S(=O)(=O)N1CC(F)(F)C1 (stereo not shown) [Compound 153, 6-Chloro-3-(3,3-difluoroazetidin-1-ylsulfonyl)-N-(2,2-dimethyltetrahydro-2H-pyran-4-yl)-2-isopropylimidazo[1,2-a]pyridine-7-carboxamide]",< 100
10,"CC(C)(C)NS(=O)(=O)c1c(C(C)(C)C)nc2cc(C(=O)NC3CCOCC3)c(Cl)cn12 [Compound 162, 2-tert-Butyl-3-(N-tert-butylsulfamoyl)-6-chloro-N-(tetrahydro-2H-pyran-4-yl)imidazo[1,2-a]pyridine-7-carboxamide]",< 100
11,"Cc1cn2c(S(=O)(=O)NC(C)(C)C)c(C(C)C)nc2cc1C(=O)Nc1ccccc1 [Compound 168, 3-(N-tert-Butylsulfamoyl)-2-isopropyl-6-methyl-N-phenylimidazo[1,2-a]pyridine-7-carboxamide]",< 100

# Same assay, conditions: human Cav3.2-expressing KJMGER8 cells (Namalwa-derived); calcium response induced by 5 mmol/L CaCl2; normalised to 3 μmol/L mibefradil; read-out: IC50 for the human Cav3.2 T-type Ca2+ current
row,SMILES,IC50 [nM]
1,"C=Cc1cn2c(CC3CCC(F)(F)CC3)c(C(F)(F)F)nc2cc1C(=O)Nc1ccccc1 [Compound 120, 3-(4,4-Difluorocyclohexylmethyl)-N-phenyl-2-trifluoromethyl-6-vinylimidazo[1,2-a]pyridine-7-carboxamide]",< 100
2,"Cc1cc(-c2nc3ccccc3[nH]2)cc2nc(C(F)(F)F)c(CC3CCC(F)(F)CC3)n12 [Compound 127, 2-{3-(4,4-Difluorocyclohexylmethyl)-5-methyl-2-trifluoromethylimidazo[1,2-a]pyridin-7-yl}-1H-benzimidazole]",< 100
3,"CC(C)c1nc2cc(C(=O)Nc3ccccc3)ccn2c1S(=O)(=O)NC(C1CC1)C1CC1 [Compound 129, 3-{N-(Dicyclopropylmethyl)sulfamoyl}-2-isopropyl-N-phenylimidazo[1,2-a]pyridine-7-carboxamide]",< 100
4,"CC(C)c1nc2cc(C(=O)Nc3ccccc3)ccn2c1S(=O)(=O)N(C)c1ccccc1 [Compound 132, 2-Isopropyl-3-(N-methyl-N-phenylsulfamoyl)-N-phenylimidazo[1,2-a]pyridine-7-carboxamide]",< 100
5,"CC(C)c1nc2cc(C(=O)NOCc3ccccc3)ccn2c1S(=O)(=O)N1CC(F)(F)C1 [Compound 135, N-(Benzyloxy)-3-(3,3-difluoroazetidin-1-ylsulfonyl)-2-isopropylimidazo[1,2-a]pyridine-7-carboxamide]",< 100
6,"CS(=O)(=O)c1nc2cc(C(=O)Nc3ccccc3)ccn2c1S(=O)(=O)N1CCC(F)(F)CC1 [Compound 143, 3-(4,4-Difluoropiperidin-1-ylsulfonyl)-2-(methylsulfonyl)-N-phenylimidazo[1,2-a]pyridine-7-carboxamide]",< 100
7,"O=C(Nc1ccccc1)c1ccn2c(S(=O)(=O)N3CC(F)(F)C3)c(C(F)(F)F)nc2c1 [Compound 146, 3-(3,3-Difluoroazetidin-1-ylsulfonyl)-N-phenyl-2-trifluoromethylimidazo[1,2-a]pyridine-7-carboxamide]",< 100
8,"CC(C)c1nc2cc(C(=O)Nc3ccccc3N)c(Cl)cn2c1S(=O)(=O)N1CC(F)(F)C1 [Compound 149, N-(2-Aminophenyl)-6-chloro-3-(3,3-difluoroazetidin-1-ylsulfonyl)-2-isopropylimidazo[1,2-a]pyridine-7-carboxamide]",< 100
9,"CC(C)c1nc2cc(C(=O)NCC3CC3)c(Cl)cn2c1S(=O)(=O)N1CC(F)(F)C1 [Compound 150, 6-Chloro-N-cyclopropylmethyl-3-(3,3-difluoroazetidin-1-ylsulfonyl)-2-isopropylimidazo[1,2-a]pyridine-7-carboxamide]",< 100
10,"CC(C)c1nc2cc(C(=O)NOCc3ccccc3)c(Cl)cn2c1S(=O)(=O)N1CC(F)(F)C1 [Compound 152, N-Benzyloxy-6-chloro-3-(3,3-difluoroazetidin-1-ylsulfonyl)-2-isopropylimidazo[1,2-a]pyridine-7-carboxamide]",< 100
11,"CC(C)c1nc2cc(C(=O)Nc3ccccc3)c(Cl)cn2c1S(=O)(=O)NC1CC(F)(F)C1 [Compound 154, 6-Chloro-3-{N-(3,3-difluorocyclobutyl)sulfamoyl}-2-isopropyl-N-phenylimidazo[1,2-a]pyridine-7-carboxamide]",< 100
12,"CC(C)c1nc2cc(C(=O)Nc3ccccc3)c(Cl)cn2c1S(=O)(=O)Nc1ccccc1 [Compound 155, 6-Chloro-2-isopropyl-N-phenyl-3-(N-phenylsulfamoyl)imidazo[1,2-a]pyridine-7-carboxamide]",< 100
13,"CC(C)c1nc2cc(C(=O)Nc3ccccc3)c(Cl)cn2c1S(=O)(=O)NC(C)(C)C [Compound 156, 3-(N-tert-Butylsulfamoyl)-6-chloro-2-isopropyl-N-phenylimidazo[1,2-a]pyridine-7-carboxamide]",< 100
14,"Cc1cc(NC(=O)c2cc3nc(C(C)C)c(S(=O)(=O)NC(C)(C)C)n3cc2Cl)on1 [Compound 157, 3-(N-tert-Butylsulfamoyl)-6-chloro-2-isopropyl-N-(3-methylisooxazol-5-yl)imidazo[1,2-a]pyridine-7-carboxamide]",< 100
15,"CC(C)c1nc2cc(C(=O)NC3CC(F)(F)C3)c(Cl)cn2c1S(=O)(=O)NC(C)(C)C [Compound 158, 3-(N-tert-Butylsulfamoyl)-6-chloro-N-(3,3-difluorocyclobutyl)-2-isopropylimidazo[1,2-a]pyridine-7-carboxamide]",< 100
16,"CC(C)c1nc2cc(C(=O)NOCc3ccccc3)c(Cl)cn2c1S(=O)(=O)NC(C)(C)C [Compound 159, N-Benzyloxy-3-(N-tert-butylsulfamoyl)-6-chloro-2-isopropylimidazo[1,2-a]pyridine-7-carboxamide]",< 100
17,"Cc1cn2c(S(=O)(=O)C3CCCCC3)c(C(C)C)nc2cc1C(=O)Nc1ccccc1 [Compound 163, 3-(Cyclohexylsulfonyl)-2-isopropyl-6-methyl-N-phenyl-imidazo[1,2-a]pyridine-7-carboxamide]",< 100
18,"Cc1cn2c(S(=O)(=O)N3CCC(F)(F)CC3)c(C(C)C)nc2cc1C(=O)Nc1ccncc1 [Compound 165, 3-(4,4-Difluoropiperidin-1-ylsulfonyl)-2-isopropyl-6-methyl-N-(pyridin-4-yl)imidazo[1,2-a]pyridine-7-carboxamide]",< 100
19,"Cc1cn2c(S(=O)(=O)N3CC4(COC4)C3)c(C(C)C)nc2cc1C(=O)Nc1ccccc1 [Compound 166, 3-(2-Oxa-6-azaspiro[3.3]heptan-6-ylsulfonyl)-2-isopropyl-6-methyl-N-phenylimidazo[1,2-a]pyridine-7-carboxamide]",< 100
20,"CC(C)c1nc2cc(-c3nc4ccccc4[nH]3)c(Cl)cn2c1S(=O)(=O)N1CC(F)(F)C1 [Compound 170, 2-{6-Chloro-3-(3,3-difluoroazetidin-1-ylsulfonyl)-2-isopropylimidazo[1,2-a]pyridin-7-yl}-1H-benzimidazole]",< 100
21,"CC(C)c1nc2nc(C(=O)Nc3ccccc3)ccn2c1S(=O)(=O)N1CCC(F)(F)CC1 [Compound 171, 3-(4,4-Difluoropiperidin-1-ylsulfonyl)-2-isopropyl-N-phenylimidazo[1,2-a]pyrimidine-7-carboxamide]",< 100
22,"CC(C)c1nc2nc(C(=O)NC3CCCCC3)ccn2c1S(=O)(=O)N1CCC(F)(F)CC1 [Compound 172, N-Cyclohexyl-3-(4,4-difluoropiperidin-1-ylsulfonyl)-2-isopropylimidazo[1,2-a]pyrimidine-7-carboxamide]",< 100
23,"CC(C)c1nc2cc(NC(=O)C3CCCCC3)ncn2c1S(=O)(=O)N1CCC(F)(F)CC1 [Compound 175, N-{3-(4,4-Difluoropiperidin-1-ylsulfonyl)-2-isopropylimidazo[1,2-c]pyrimidin-7-yl}cyclohexanecarboxamide]",< 100
